Entries after “also recorded” stand apart in the source; their conditions may differ.

The test system of data set [1] is intracellular reduced glutathione. Briefly: intracellular reduced glutathione by monochlorobimane flow cytometry. It counts as cell-based, human. Particulars: serum-starved fibroblasts after DHEA treatment. How it is done: It was tested whether the increase in glutathione reductase activity in serum-starved fibroblasts was associated with elevated levels of reduced glutathione. 7 dSS fibroblasts were focused on because they had the highest activity of the four enzymes in the NADPH production pathway. Flow cytometry was used to monitor the levels of glutathione in proliferating and 7 dSS fibroblasts with monochlorobimane (MCB), a compound that forms blue fluorescent adducts when it reacts with intracellular reduced glutathione (Sebastia et al., “Evaluation of fluorescent dyes for measuring intracellular glutathione content in primary cultures of human neurons and beuroblastoma SH-SY5Y, Cytometry A 51, 16-25, 2003, which is incorporated herein by reference as if fully set forth). […] The results are consistent with a model in which the NADPH production program activated in the serum-starved fibroblasts contributes to a larger pool of reduced glutathione.
It was expected that the reduction in NADPH levels that resulted from DHEA treatment would result in lower activity of glutathione reductase and thus a decrease in the levels of reduced glutathione. […] The depletion of glutathione in response to DHEA could be an important part of the apoptotic pathway. […]
Background: A flow cytometer gives signals particle by particle.

Data set [2] relates to spontaneous breast cancer. Particulars: long-term treatment; female C3H (Avy/a) mice; cited from earlier work.
In data set [3] the test system is extracellular glutathione. Briefly: glutathione in conditioned medium by mass spectrometry. It counts as cell-based, human. Conditions: 7 dSS fibroblasts; DHEA vs DMSO control. The source says:
It was expected that the reduction in NADPH levels that resulted from DHEA treatment would result in lower activity of glutathione reductase and thus a decrease in the levels of reduced glutathione. […] The depletion of glutathione in response to DHEA could be an important part of the apoptotic pathway. Alternatively, because apoptosing cells can rapidly and selectively release glutathione to the extracellular environment (van den Dobbelsteen et al., 1996, “Rapid and specific efflux of reduced glutathione during apoptosis induced by anti-Fas/APO-1 antibody,” J Biol Chem 271, 15240-15427; Franco et al., “Glutathione depletion is necessary for apoptosis in lymphoid cells independent of reactive oxygen species,” J Biol Chem 282, 30452-30465, 2007, which are incorporated herein by reference as if fully set forth), the depletion of glutathione could represent a response to a distinct apoptotic trigger. Mass spectrometry was used to measure glutathione levels in conditioned medium from 7 dSS fibroblasts treated with DMSO as a control or with DHEA. There was no increase in extracellular glutathione in conditioned medium from DHEA-treated fibroblasts compared with controls; in fact, levels were lower, consistent with a DHEA-induced reduction in intracellular levels of reduced glutathione. […]

The test system of data set [4] is skin papillomas and carcinomas. Particulars: topical 7,12-dimethylbenz(a)anthracene (DMBA), mice; cited from earlier work.
The test system of data set [5] is four day serum starved fibroblasts. Put plainly: induction of apoptosis in quiescent fibroblasts by DHEA and/or autophagy inhibitor combined with proteasome inhibitors. It counts as cell-based, human. Particulars: DHEA alone; 48 hour treatment. How it is done: Referring to FIG. 17, the effect of treatment using DHEA and/or an autophagy inhibitor combined with proteasome inhibitors on apoptosis in quiescent cells was analyzed.
In this experiment, the proteasome inhibitor, bortezomib, was used in varying concentrations with DHEA during a 48 hour treatment.

The test system of another data set is thyroid tumors. Conditions: F344 rats treated with DHPN, then DHEA; cited from earlier work.
Data set [6] has as its system neoplasms, lymphoblastic lymphoma. Particulars: p53-deficient mouse; cited from earlier work.
Data set [7] has as its system primary human fibroblasts. Put plainly: caspase 3/7 activity apoptosis assay (ApoTox-Glo) in proliferating and quiescent fibroblasts. It counts as cell-based. Conditions: for apoptosis-inducing effect (caspase-3/7 activity normalized to vehicle): four days treatment. How it is done: Referring to FIG. 2A, primary human fibroblasts were tested either in a proliferating state or after being induced into quiescence. Quiescence may be induced by either contact inhibition or serum starvation. Cells were treated with DHEA for four days, with bafilomycin added on the fourth day. Apoptosis was assessed based on the activity of caspase 3/7 for a fluorogenic substrate.
PPP inhibition and apoptosis analysis: Apoptosis was measured based on the levels of caspase 3/7 released into the media using the ApoTox-Glo Triplex Assay according to the manufacturer's instructions (Promega Corp., Madison, Wis.). Cells were plated in triplicate at 10,000 cells per well in white-walled, clear-bottom 96-well plates (Costar, Corning Life Sciences, Lowell, Mass.). For contact inhibition, cells were plated 7 days prior to the start of treatment, for serum starvation cells were plated 4 days prior to treatment and switched to 0.1% serum media for the remaining 3 days, while proliferating cells were plated the day prior to the start of treatment. […] Cells in serum starvation conditions were incubated in 0.1% serum during treatment as well. The apoptosis reagent was added at 100 μl per well and incubated for 1 h prior to reading. Luminescence was read from the top using a Synergy-2 plate reader (Biotek, Winooski, Vt.). Luminescence data were normalized to the vehicle only condition.
Apoptosis induction was assessed by monitoring caspase 3/7 activity using a luminescent caspase substrate. This assay is optimized for high-throughput screening in 96-well plates and allows multiple concentrations and combination of drugs to be tested in triplicate at different time points. […] Therefore, this assay was used to compare proliferating and serum-starved cells only.

In the case of `C[C@]12CC[C@H](O)CC1=CC[C@@H]1[C@@H]2CC[C@]2(C)C(=O)CC[C@@H]12` [DHEA, dehydroepiandrosterone], the “intracellular GSH pools” value in data set [1] was “smaller pools of intracellular GSH”. Further, the “spontaneous breast cancer occurrence” value in data set [2] was “inhibit spontaneous breast cancer occurrence”. In addition, the “extracellular glutathione in conditioned medium” value in data set [3] is on record as “no increase”. Also, the “development of skin papillomas and carcinomas” value in data set [4] is recorded as “reduced”. Moreover, the “increase in apoptosis induction” value in data set [5] is about 2 fold. In addition, the basophilic hepatocellular foci result in the data set with thyroid tumors is given as “associated with development of basophilic hepatocellular foci”. Also, the “development of thyroid tumors” value with thyroid tumors is recorded as “decreased development of thyroid tumors”. The “death due to neoplasms” value in data set [6] is “delay death due to neoplasms”. Moreover, the “apoptosis-inducing effect (caspase-3/7 activity normalized to vehicle)” value in data set [7] (fibroblasts confluent 11 days (CI11) vs proliferating) is “significantly stronger; also recorded: statistically significantly different at all doses except 100 μM”; in data set [7] (fibroblasts serum-starved seven days (SS7) vs proliferating) it was “yet stronger; also recorded: particularly sensitive; also recorded: statistically significantly different at all doses”. For the same molecule, the caspase induction in data set [7] (treatment with DHEA alone) was 6- to 8 fold.

Values taken from patent publication US20130064815A1, “INDUCING APOPTOSIS IN QUIESCENT CELLS” (THE TRUSTEES OF PRINCETON UNIVERSITY, priority 2011, published 2013).
